Here are results for one molecule from patent US20230165868A1, “PARAXANTHINE-BASED COMPOSITIONS FOR ENHANCING MUSCLE FUNCTION, NITRIC OXIDE SIGNALING, AND/OR MUSCLE GLYCOGEN LEVELS” (Ingenious Ingredients, LP, priority 2021, published 2023).

Data set [1] is described as follows: Clinical biochemical profiles of serum. In kind it is in vivo, Swiss Albino mice. The settings on record: serum at end of 28-day treatment; mean ± SD, n = 8. The protocol: (§1) After one week of acclimation, the animals were randomly divided by body weight into five groups (n=8 per group in each test) for oral treatment once a day, at approximately same time each day (±1 hour), for 28 consecutive days: (1) vehicle control; (2) paraxanthine (3) L-theanine; […] The dose administered to the mice was calculated using US Food and Drug Administration for human equivalence doses (HED), assuming a human weight of 60 kg. […] Dosing was conducted via oral gavage using disposable polypropylene syringes with sterilized stainless steel gavage tubes. The food intake and water consumption were monitored daily, and BW was recorded weekly. The last dose on day 28 was given 1 hour prior to testing. All animals were euthanized by 95% CO2 after 28 days of following their assigned treatment. Blood was collected immediately after euthanization by the retro-orbital route and was immediately centrifuged at 1500×g for 10 min at 4° C. before having all serum transferred into cryogenic tubes and stored at -80° C. The liver, heart, gastrocnemius and soleus were excised and weighed. Collected serum was analyzed for clinical biochemical variables including aspartate aminotransaminase (AST), alanine aminotransaminase (ALT), alkaline phosphatase (ALP), uric acid (UA), creatinine, total cholesterol (TC), triglycerides (TG), high-density lipoproteins (HDL), and low-density lipoproteins (LDL) were measured using an auto analyzer (EM360, ERBA Diagnostics Mannheim GmbH, Mannheim, Germany). Nitric oxide was analyzed using standard ELISA assay kits (Lot No: E-BC-[…], Elabscience, Houston, Tex., USA).

For data set [2], the system named is male Swiss Albino mice. Nature of the data set: Muscle weight (gastrocnemius, soleus) after 28 days. It counts as in vivo. To be noted: after 28 days of supplementation; vs vehicle control. The protocol: (§2) (2) paraxanthine (3) L-theanine; […] The dose administered to the mice was calculated using US Food and Drug Administration for human equivalence doses (HED), assuming a human weight of 60 kg. […] Dosing was conducted via oral gavage using disposable polypropylene syringes with sterilized stainless steel gavage tubes. The food intake and water consumption were monitored daily, and BW was recorded weekly. The last dose on day 28 was given 1 hour prior to testing. All animals were euthanized by 95% CO2 after 28 days of following their assigned treatment. Blood was collected immediately after euthanization by the retro-orbital route and was immediately centrifuged at 1500×g for 10 min at 4° C. before having all serum transferred into cryogenic tubes and stored at -80° C. The liver, heart, gastrocnemius and soleus were excised and weighed.

In data set [3] the test system is male Swiss Albino mice. Briefly: Forelimb grip strength test. It counts as in vivo. As for the experimental part:
After one week of acclimation, the animals were randomly divided by body weight into five groups (n=8 per group in each test) for oral treatment once a day, at approximately same time each day (±1 hour), for 28 consecutive days: (1) vehicle control; (2) paraxanthine (3) L-theanine; […] The dose administered to the mice was calculated using US Food and Drug Administration for human equivalence doses (HED), assuming a human weight of 60 kg. […] Dosing was conducted via oral gavage using disposable polypropylene syringes with sterilized stainless steel gavage tubes. The food intake and water consumption were monitored daily, and BW was recorded weekly. The last dose on day 28 was given 1 hour prior to testing. The forelimb grip strength was measured on day 0 and day 28 by using a stainless-steel grill to assess muscle strength (Orchid Scientific & Innovative India Pvt Ltd, India). Grip strength was measured one hour after treatment. Briefly, each mouse was placed on a grill chamber and the steel bar is inverted; grip strength is measured by recording the time each animal holds the steel bar. The maximum time for each trial was six minutes. Each animal performed three independent trials separated by six minutes intervals and the mean of the three trials was calculated.

The nature of data set [4]: Liver and heart mass / gross pathology. In kind it is in vivo, Swiss Albino mice. The settings on record: after 28 days of treatment; mean ± SD, n = 8. As for the experimental part: as §2
Data set [5] relates to Nitric oxide. Nature of the data set: Serum nitric oxide ELISA. It counts as in vivo, Swiss Albino mice. The settings on record: serum after 28 days of treatment; mean ± SD, n = 8. As for the experimental part: as §1
For orientation: ELISA stands for enzyme-linked immunosorbent assay.

The test system of data set [6] is male Swiss Albino mice. Briefly: Treadmill endurance test. It counts as in vivo. The protocol: (2) paraxanthine (3) L-theanine; […] The dose administered to the mice was calculated using US Food and Drug Administration for human equivalence doses (HED), assuming a human weight of 60 kg. […] Dosing was conducted via oral gavage using disposable polypropylene syringes with sterilized stainless steel gavage tubes. The food intake and water consumption were monitored daily, and BW was recorded weekly. The last dose on day 28 was given 1 hour prior to testing. […] All animals were adapted to this procedure daily 60 minutes after dosing for five days in a week during the treatment period. On 28th day of each respective treatment, all animals were subjected to a muscle endurance test. […] Animals were subjected to the treadmill test until exhaustion. Distance traveled (cm) was measured as a marker of exercise performance.

The nature of data set [7]: Feed consumption during 28-day oral supplementation. In kind it is in vivo, Swiss Albino mice. The settings on record: mean ± SD, n = 8 mice. As for the experimental part:
(§3) Forty 8-week-old male Swiss Albino mice were housed in an animal room at a constant temperature (22±3° C.) and humidity (30%-70%) under a 12:12 h light-dark cycle with standard laboratory diet (Purina 5L79, Rat and Mouse 18% protein; PMI Nutrition International, Brentwood, Mo., USA). Distilled water was provided ad libitum. All animal experiments were reviewed and approved by the Institutional Animal Ethical Committee (IAEC) of Radiant Research Services Pvt. Ltd (Bangalore, India). All research was conducted in accordance with the guidelines of the committee for the purpose of control and supervision of experiments on animals (CPCSEA Registration Number-1803/PO/RcBi/S/2015/CPCSEA).
(§4) After one week of acclimation, the animals were randomly divided by body weight into five groups (n=8 per group in each test) for oral treatment once a day, at approximately same time each day (±1 hour), for 28 consecutive days: (1) vehicle control; (2) paraxanthine (3) L-theanine; (4) alpha-GPC; and (5) taurine. The dose administered to the mice was calculated using US Food and Drug Administration for human equivalence doses (HED), assuming a human weight of 60 kg. The following HED were used in this study: 100 mg paraxanthine, (ENFINITY™, Ingenious Ingredients, L.P Lewisville, Tex., USA; mouse dose: 20.5 mg/kg bw/day); 200 mg alpha-GPC mg (YangLing Daily Health Bio-Engineering Technology Co., Ltd; mouse dose: 41.09 mg/kg bw), 50 mg L-theanine (Hangzhou Qinyuan Natural Plant High-tech Co., Ltd; mouse dose: 10.28 mg/kg bw), and 500 mg taurine (Jiangyin Huachang Food Additive Co., Ltd; mouse dose: 102.75 mg/kg bw). 0.5% Carboxy Methyl Cellulose sodium was used as vehicle and the test item formulations were prepared daily. Dosing was conducted via oral gavage using disposable polypropylene syringes with sterilized stainless steel gavage tubes. The food intake and water consumption were monitored daily, and BW was recorded weekly. The last dose on day 28 was given 1 hour prior to testing.

Data set [8] is described as follows: Body weight during 28-day oral supplementation. It counts as in vivo, Swiss Albino mice. The settings on record: mean ± SD, n = 8 mice. The protocol: as §3, §4

In data set [1], `NCCS(=O)(=O)O` [Taurine, taurine] gave an ALP of 180.4 ± 5.42 U/L. In data set [1], this molecule came in with an ALT of 25.00 ± 1.07 U/L. The AST in data set [1] is on record as 40.13 ± 2.36 U/L. Further, in data set [1], the Creatinine is recorded as 0.93 ± 0.14 mg/dL. Besides, in data set [1], the Urea is 29.38 ± 1.60 mg/dL. Further, in data set [2], the “increase in gastrocnemius muscle mass compared to control” value is given as “no effect on muscle mass”. Moreover, the “increase in soleus muscle mass compared to control” value in data set [2] is “no effect on muscle mass”. Also, the “Baseline forelimb grip strength” value in data set [3] (day 0 baseline, time holding steel bar, mean of three trials) came to 90.94±0.85. Further, the “increase in forelimb grip strength compared to control” value in data set [3] (day 28, one hour after oral treatment, vs vehicle control) is recorded as “failed to reach statistical significance”. In data set [4], the Heart mass came to 190 ± 1.2 mg. Moreover, in data set [4], the Liver mass is listed as 1,834 ± 52 mg. Further, in data set [5], the “Nitric Oxide” value stood at 7.56 ± 0.29 ng/mL. Also, the “Distance traveled on treadmill” value in data set [6] (after 28 days of supplementation, run until exhaustion, mean ± SD, n=8) is 1,671±125 centimeters. Besides, the “increase in distance traveled during treadmill exercise compared to control” value in data set [6] (after 28 days of supplementation, vs vehicle control) is given as “did not increase treadmill performance”. Also, the “Baseline treadmill performance (distance)” value in data set [6] (baseline, mean ± SD) amounted to 256.9±29.3 cm. In addition, the feed consumption in data set [7] (Week 1) is 40.95 ± 0.60 grams; in data set [7] (Week 2), 43.21 ± 1.25 grams; in data set [7] (Week 3) it was 45.21 ± 1.15 grams; in data set [7] (Week 4) it was 47.36 ± 1.08 grams. For the same molecule, the body weight in data set [8] (Basal) was 22.50 ± 0.49 grams; in data set [8] (Week 1, oral once daily) it was 24.08 ± 0.66 grams; in data set [8] (Week 2, oral once daily) it was 26.99 ± 0.82 grams; in data set [8] (Week 3, oral once daily), 29.06 ± 0.69 grams; in data set [8] (Week 4, oral once daily), 32.34 ± 3.06 grams.
